Assay results as given in patent US8138227B2, “Method for inhibiting or reversing non-enzymatic glycation” (Trustees of Dartmouth College, priority 2006, dated 2012).

Experiment: Transglycation of glucose-ethylamine with thiolamines followed by 13C NMR
Conditions: 50 mM thiolamine, 20 mM G-E; for conversion of G-E to thiazolidine (glucosyl-cysteamine / glucosyl-penicillamine): 250 mM HEPES pH 7.25, room temperature; for potency as transglycating agent (kinetics of decomposition of G-E and formation of thiazolidines): pH 7.25, room temperature
Protocol: The reaction mixture (0.5 ml in a 5 mm NMR tube) included 250 mM HEPES, pH 7.25, 10% D2O (for the purpose of locking the NMR magnetic field) and 50 mM concentration of a compound of interest such as cysteine. The reaction was performed at room temperature and it was initiated by adding an aliquot of G-E to produce a final concentration of 20 mM at which time consecutive NMR spectra of 20-minute duration were acquired using 580 scans, 60° pulses and an interpulse delay of 2.065 seconds.
NMR spectra were obtained on the VARIAN UNITY-300 and -500 MHz machines. Spectra were analyzed using information from model compounds and chemical shift data known in the art (Neglia, et al. (1985) J. Biol. Chem. 260:5406-10; Mossine, et al. (1994) Carbohyd. Res. 262:257-70).
Studies of reactions involving Schiff bases are intrinsically difficult as these compounds are labile at physiological pH. As such, to unambiguously follow Shiff base reactions in real-time, ^13C NMR spectroscopy was employed. To utilize this technique efficiently, glucose-ethylamine (G-E) was synthesized and labeled with ^13C at the C-1 position of the glucose moiety and with ^15N at the amino group of the ethylamine as a model compound of glucosyl-lysine.
Due to the spin-spin coupling between the nuclei of neighboring ^15N and ^13C atoms, the ^13C-labeled C-1 peak of glucose appeared in the ^13C NMR spectrum as a doublet resonating at 90.00 ppm. The unique signature doublet in the ^13C NMR spectrum of G-E, its chemical shift as well as the distinct ^13C chemical shifts of the other glucose-nucleophile adducts allowed for real-time observation reactions between G-E and various nucleophiles since cleavage of the ethylamine-glucose bond results in loss of the G-E doublet and the concomitant formation of new peaks corresponding to the new glucose-nucleophile adducts, e.g., the endproducts of transglycation of G-E, with glycine, taurine, spermidine and N-acetylcysteine. Because all of these transglycation products are labile at physiological pHs, the reactions were carried at a slightly alkaline pH of 8.5 to stabilize the reactants and products sufficiently so they could be followed by NMR over a span of several hours.

SMILES | conversion of G-E to thiazolidine (glucosyl-cysteamine / glucosyl-penicillamine) [%] | potency as transglycating agent (kinetics of decomposition of G-E and formation of thiazolidines)
CC(C)(S)[C@@H](N)C(=O)O [penicillamine] | 70 | much more potent
N[C@@H](CS)C(=O)NCC(=O)O [cys-gly] | – | reasonably good transglycating agents
N[C@@H](CS)C(=O)O [cysteine] | – | reasonably good transglycating agents
NCCS [cysteamine] | 80 | much more potent
